The results in this text go back to PubChem BioAssay (NCI).

Among the test systems are SF-539 CNS; CAKI-1 renal; A549 NSCLC; MCF7 breast; M14 melanoma; EKVX NSCLC; T-47D breast; SK-MEL-2 melanoma; UO-31 renal; K-562 leukemia.
Holding throughout (test): NCI tumour cell line growth inhibition, 48 h

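Protocol summary: plate cells (96-well), add compound at 5 concentrations, incubate 48 h, interpolate endpoints linearly. Abbreviation: GI50, concentration required for 50% inhibition of growth. TGI: concentration producing complete growth inhibition.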 Some results are limits rather than exact numbers.

Take `O=C1/C(=C/c2ccccc2)CN(C(=O)CCN2CCOCC2)C/C1=C\c1ccccc1`: the TGI with SF-539 CNS is 4.2 µM; with CAKI-1 renal it was 23 µM; in the assay with A549 NSCLC, 20.2 µM; with MCF7 breast, 6.29 µM; in the assay with M14 melanoma it was 5.4 µM; in the assay with EKVX NSCLC it was 26.7 µM. The TGI came to 7.35 µM in the assay with T-47D breast, 6.96 µM in the assay with SK-MEL-2 melanoma, 19.2 µM in the assay with UO-31 renal and 4.18 µM in the assay on K-562 leukemia.
With `O=C(/C=C/Sc1cc(C(F)(F)F)cc(C(F)(F)F)c1)c1ccc(Cl)cc1`, the GI50 with SF-539 CNS was 14.4 µM; in the assay with CAKI-1 renal, 3.57 µM; with A549 NSCLC, 16.1 µM; in the assay with MCF7 breast, 13.6 µM; with M14 melanoma it was 1.67 µM; in the assay on EKVX NSCLC it was 14.3 µM. Besides, the GI50 with T-47D breast was 1.82 µM; in the assay on SK-MEL-2 melanoma, 31.1 µM; with UO-31 renal, 2.85 µM; in the assay with K-562 leukemia it was 2.92 µM. The TGI came to 30.9 µM in the assay with SF-539 CNS; 9.43 µM in the assay on CAKI-1 renal; 32.8 µM with A549 NSCLC; 35.8 µM with MCF7 breast; 3.36 µM with M14 melanoma; 30.5 µM in the assay on EKVX NSCLC. Moreover, the TGI was determined as 4.09 µM with T-47D breast, 63.1 µM in the assay on SK-MEL-2 melanoma, 6.05 µM with UO-31 renal and 24.6 µM in the assay on K-562 leukemia.
On to `COc1cc2nc(N3CCCC3)nc(NCc3ccccc3)c2cc1OC`, for which the GI50 with SF-539 CNS is 1.71 µM; in the assay on CAKI-1 renal it was 1.57 µM; in the assay on A549 NSCLC, 4.1 µM; with MCF7 breast it was 1.71 µM; in the assay with M14 melanoma, 1.81 µM; with EKVX NSCLC it was 6.04 µM. Further, the GI50 is 1.87 µM in the assay on T-47D breast, 2.26 µM in the assay with SK-MEL-2 melanoma, 1.38 µM in the assay on UO-31 renal and 2.09 µM in the assay with K-562 leukemia. The TGI in the assay on SF-539 CNS came to 3.12 µM; in the assay with CAKI-1 renal, 3.14 µM; with A549 NSCLC, 16.3 µM; in the assay with MCF7 breast it was 4.21 µM; in the assay on M14 melanoma, 3.49 µM; in the assay on EKVX NSCLC, 19.2 µM. Moreover, the TGI in the assay on T-47D breast was found to be 4.29 µM; with SK-MEL-2 melanoma, 5.13 µM; in the assay with UO-31 renal it was 3.21 µM; in the assay with K-562 leukemia, 6.02 µM.
Take `COC1CC(O[C@H]2CC[C@@]3(C)[C@H](CC[C@@H]4[C@@H]3CC[C@]3(C)[C@@H](C5=CC(=O)OC5)[C@@H](OC(C)=O)C[C@]43O)C2)OC(C)C1O` (some centres undefined): the GI50 in the assay with SF-539 CNS, in the assay on CAKI-1 renal, in the assay on A549 NSCLC, in the assay with MCF7 breast, with M14 melanoma and in the assay on EKVX NSCLC was less than 0.01 µM throughout. In addition, the GI50 in the assay on T-47D breast, in the assay on SK-MEL-2 melanoma, in the assay with UO-31 renal and in the assay with K-562 leukemia was less than 0.01 µM throughout. The TGI with SF-539 CNS is less than 0.01 µM; in the assay with CAKI-1 renal, less than 0.01 µM; in the assay with A549 NSCLC it was less than 0.01 µM; in the assay with MCF7 breast, less than 0.0117 µM; with M14 melanoma it was less than 0.0106 µM; with EKVX NSCLC, less than 0.01 µM. Besides, the TGI in the assay with T-47D breast was less than 0.01 µM; with SK-MEL-2 melanoma, less than 0.0105 µM; with UO-31 renal it was less than 0.01 µM; in the assay on K-562 leukemia, less than 0.0135 µM.
As for `C=CCN=C(N/N=C/c1ccc([N+](=O)[O-])o1)NS(=O)(=O)c1cc(C(=O)Nc2ccc(Cl)cc2)c(Cl)cc1SC`, the GI50 was 5.92 µM in the assay with SF-539 CNS; 8.55 µM in the assay on CAKI-1 renal; more than 37.3 µM in the assay on A549 NSCLC; 1.28 µM with MCF7 breast; 3.09 µM with M14 melanoma; 2.63 µM with EKVX NSCLC. Further, the GI50 with T-47D breast is 5.96 µM; in the assay with UO-31 renal, more than 49.9 µM; in the assay with K-562 leukemia, 2.41 µM. Further, the TGI with SF-539 CNS was more than 100 µM; in the assay on CAKI-1 renal, more than 100 µM; with A549 NSCLC it was more than 100 µM; in the assay on MCF7 breast it was more than 100 µM; in the assay on M14 melanoma, more than 21.6 µM; in the assay on EKVX NSCLC, 6.58 µM. For the same compound, the TGI is more than 51.5 µM in the assay on T-47D breast, more than 24.4 µM in the assay on SK-MEL-2 melanoma, more than 100 µM with UO-31 renal and more than 21.2 µM in the assay with K-562 leukemia.
With `O=C(C/C(=N/O)C(=O)NC1=C(Cl)C(=O)c2ccccc2C1=O)CC(c1ccccc1)c1c(O)c2ccccc2oc1=O` (centres undefined), the TGI was determined as 31.7 µM with SF-539 CNS; 32.6 µM in the assay with CAKI-1 renal; 35.3 µM in the assay on A549 NSCLC; 26.8 µM with MCF7 breast; 18.6 µM in the assay on M14 melanoma; 42.3 µM in the assay on EKVX NSCLC. Further, the TGI in the assay on T-47D breast is 38.1 µM; with SK-MEL-2 melanoma it was 32.4 µM; in the assay on UO-31 renal, 44.5 µM; in the assay on K-562 leukemia it was more than 100 µM.
With `Cc1cc(NCCCN(C)C)c2ccc3c(ccc4c(NCCCN(C)C)cc(C)nc43)c2n1`, the GI50 in the assay on SF-539 CNS was 0.193 µM; in the assay on CAKI-1 renal, 0.217 µM; in the assay with A549 NSCLC, 0.0643 µM; in the assay with MCF7 breast it was 0.0635 µM; in the assay with M14 melanoma it was 0.194 µM; in the assay on EKVX NSCLC, 0.246 µM. The GI50 is 0.521 µM in the assay on T-47D breast, 0.228 µM in the assay on SK-MEL-2 melanoma, 0.231 µM in the assay on UO-31 renal and 0.454 µM in the assay with K-562 leukemia. In addition, the TGI turned out to be 0.487 µM in the assay on SF-539 CNS; 0.673 µM with CAKI-1 renal; 0.411 µM in the assay on A549 NSCLC; 0.302 µM in the assay with MCF7 breast; 0.397 µM in the assay on M14 melanoma; 0.821 µM with EKVX NSCLC. Also, the TGI was 2.54 µM with T-47D breast, 0.55 µM with SK-MEL-2 melanoma, 0.557 µM in the assay with UO-31 renal and more than 100 µM with K-562 leukemia.
In the case of `Cc1cc2c(cc1Cl)SC1=NN(C)C(C)N1S2(=O)=O` (centres undefined), the GI50 was more than 100 µM with SF-539 CNS; more than 100 µM in the assay with CAKI-1 renal; more than 100 µM in the assay on A549 NSCLC; 36 µM in the assay on MCF7 breast; more than 100 µM in the assay with M14 melanoma; more than 100 µM with EKVX NSCLC. Further, the GI50 in the assay on T-47D breast is 95.8 µM; in the assay with SK-MEL-2 melanoma it was more than 100 µM; in the assay on UO-31 renal it was more than 100 µM; with K-562 leukemia, more than 100 µM. For the same compound, the TGI in the assay with SF-539 CNS, with CAKI-1 renal, in the assay with A549 NSCLC, in the assay with MCF7 breast, in the assay with M14 melanoma and in the assay on EKVX NSCLC was more than 100 µM each time. Besides, the TGI with T-47D breast, in the assay with SK-MEL-2 melanoma, in the assay with UO-31 renal and in the assay with K-562 leukemia was more than 100 µM throughout.
